Laboratory results from US20130338152A1, “FLUOROPHENYL BICYCLIC HETEROARYL COMPOUNDS” (IRM LLC, priority 2011, published 2013).

How the values were obtained:
[1] = target: RET (Homo sapiens, UniProt P07949); assay: Enzymatic kinase assay; format: biochemical; conditions: enzymatic; read-out: RET IC50 values (converted)
Experimental: (§1) Two methods were used to analyze phosphorylated peptides and proteins produced by the listed tyrosine and serine/threonine-specific protein kinases: either using a filter-binding assay (FB), or using a flashplate assay (FP). The activities of protein kinases were assayed in the presence or absence of inhibitors, by measuring the incorporation of ^33P from [γ^33P]ATP into appropriate substrates.
(§2) 96-well polypropylene microplates were used to assay the activity in the FB mode. To determine the inhibitory activity of compounds 10 μL of compound dilutions were pipetted into 96-well plates followed by the addition of 10 μL of assay mix and 10 μL of individual enzymes. With the addition of the enzymes the reactions were initiated and continued at RT. […] The final concentration of DMSO in the enzyme assays was 1%.
(§3) Flashplates are available as 96-well standard (STFPs) or as streptavidin-(SAFPs) or nickel coated FPs (NiFPs) from Perkin Elmer. STFPs are 96-well polystyrene microplates in which the interior of each well is permanently coated with a thin layer of polystyrene-based scintillant. Streptavidin flashplates (SAFP) are 96 or 384-well STFPs coated with streptavidin. SAFPs are suitable for a wide variety of assay applications which utilize biotinylated capture molecules. NiFP or nickel chelate flashplates are 96- or 384-well STFPs coated with nickel chelate. NiFPs are designed for in-plate, radiometric assays which utilize 4- or 6-histidine tagged proteins and peptides.
(§4) All kinase assays were performed in STFPs for 60 mins at RT and stopped with 50 μL of 0.5% H3PO4 except PKA which were carried out in polypropylene 96- and 384-well plates, respectively. […] All wells were then washed three times with 200 μL of 0.5% H3PO4 and the plates were dried at room temperature. The plates were sealed and counted in a microplate scintillation counter (TopCount NXT, TopCount NXT HTS). The final concentration of DMSO in the enzyme assays was 1%.

[2] = target: LCK (Homo sapiens, UniProt P06239); assay: Enzymatic kinase assay; format: biochemical
Experimental: as §1, §2, §3, §4

[3] = target: CDK2A (Homo sapiens, UniProt P24941); assay: Enzymatic kinase assay; format: biochemical
Experimental: as §1, §2, §3, §4

[4] = target: TYK2 (Homo sapiens, UniProt P29597); assay: Enzymatic kinase assay; format: biochemical
Experimental: as §1, §2, §3, §4

[5] = target: T1, Aurora A (Homo sapiens, UniProt O14965); assay: Enzymatic kinase assay; format: biochemical
T1 sequence (O14965 1-403): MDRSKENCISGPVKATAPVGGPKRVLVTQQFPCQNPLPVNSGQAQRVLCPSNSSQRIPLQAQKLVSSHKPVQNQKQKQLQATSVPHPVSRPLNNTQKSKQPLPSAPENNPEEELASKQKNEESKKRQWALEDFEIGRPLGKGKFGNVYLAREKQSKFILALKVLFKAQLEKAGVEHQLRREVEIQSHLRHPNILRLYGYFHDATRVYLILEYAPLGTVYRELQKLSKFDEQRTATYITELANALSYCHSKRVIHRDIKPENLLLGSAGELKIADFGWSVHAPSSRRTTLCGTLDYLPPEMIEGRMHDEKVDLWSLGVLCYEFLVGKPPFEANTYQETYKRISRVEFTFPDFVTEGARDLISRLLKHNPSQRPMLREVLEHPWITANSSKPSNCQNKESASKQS
Experimental: as §1, §2, §3, §4

[6] = target: cMET (Homo sapiens, UniProt P08581); assay: Enzymatic kinase assay; format: biochemical
Experimental: as §1, §2, §3, §4

[7] = target: MK2 (Homo sapiens, UniProt P49137); assay: Enzymatic kinase assay; format: biochemical
Experimental: as §1, §2, §3, §4

[8] = target: EphA4 (Homo sapiens, UniProt P54764); assay: Enzymatic kinase assay; format: biochemical
Experimental: as §1, §2, §3, §4

[9] = target: P38a (Homo sapiens, UniProt Q16539); assay: Enzymatic kinase assay; format: biochemical
Experimental: as §1, §2, §3, §4

[10] = target: PDGFRa (Homo sapiens, UniProt P16234); assay: Enzymatic kinase assay; format: biochemical
Experimental: as §1, §2, §3, §4

[11] = target: cKIT (Homo sapiens, UniProt P10721); assay: Enzymatic kinase assay; format: biochemical
Experimental: as §1, §2, §3, §4

[12] = target: JAK2 (Homo sapiens, UniProt O60674); assay: Enzymatic kinase assay; format: biochemical
Experimental: as §1, §2, §3, §4

[13] = target: COT1 (Homo sapiens, UniProt P41279); assay: Enzymatic kinase assay; format: biochemical
Experimental: as §1, §2, §3, §4

[14] = target: FGFR-4 (Homo sapiens, UniProt P22455); assay: Enzymatic kinase assay; format: biochemical
Experimental: as §1, §2, §3, §4

[15] = target: cABLT315 (Homo sapiens, UniProt P00519, T315I); assay: Enzymatic kinase assay; format: biochemical
Experimental: as §1, §2, §3, §4

[16] = target: GSK3beta (Homo sapiens, UniProt P49841); assay: Enzymatic kinase assay; format: biochemical
Experimental: as §1, §2, §3, §4

[17] = target: HER2 (Homo sapiens, UniProt P04626); assay: Enzymatic kinase assay; format: biochemical
Experimental: as §1, §2, §3, §4

[18] = target: ERK2 (Homo sapiens, UniProt P28482); assay: Enzymatic kinase assay; format: biochemical
Experimental: as §1, §2, §3, §4

[19] = target: KDR (Homo sapiens, UniProt P35968); assay: Enzymatic kinase assay; format: biochemical
Experimental: as §1, §2, §3, §4

[20] = target: InsR (Homo sapiens, UniProt P06213); assay: Enzymatic kinase assay (filter-binding/flashplate); format: biochemical; conditions: enzymatic; read-out: InsR IC50 values
Experimental: as §1, §2, §3, §4

[21] = target: IGF1R (Homo sapiens, UniProt P08069); assay: Enzymatic kinase assay (filter-binding/flashplate); format: biochemical
Experimental: as §1, §2, §3, §4

[22] = target: hERG channels (Homo sapiens, UniProt Q12809); assay: biochemical

Chain of JAK2 (O60674 whole entry, species assumed): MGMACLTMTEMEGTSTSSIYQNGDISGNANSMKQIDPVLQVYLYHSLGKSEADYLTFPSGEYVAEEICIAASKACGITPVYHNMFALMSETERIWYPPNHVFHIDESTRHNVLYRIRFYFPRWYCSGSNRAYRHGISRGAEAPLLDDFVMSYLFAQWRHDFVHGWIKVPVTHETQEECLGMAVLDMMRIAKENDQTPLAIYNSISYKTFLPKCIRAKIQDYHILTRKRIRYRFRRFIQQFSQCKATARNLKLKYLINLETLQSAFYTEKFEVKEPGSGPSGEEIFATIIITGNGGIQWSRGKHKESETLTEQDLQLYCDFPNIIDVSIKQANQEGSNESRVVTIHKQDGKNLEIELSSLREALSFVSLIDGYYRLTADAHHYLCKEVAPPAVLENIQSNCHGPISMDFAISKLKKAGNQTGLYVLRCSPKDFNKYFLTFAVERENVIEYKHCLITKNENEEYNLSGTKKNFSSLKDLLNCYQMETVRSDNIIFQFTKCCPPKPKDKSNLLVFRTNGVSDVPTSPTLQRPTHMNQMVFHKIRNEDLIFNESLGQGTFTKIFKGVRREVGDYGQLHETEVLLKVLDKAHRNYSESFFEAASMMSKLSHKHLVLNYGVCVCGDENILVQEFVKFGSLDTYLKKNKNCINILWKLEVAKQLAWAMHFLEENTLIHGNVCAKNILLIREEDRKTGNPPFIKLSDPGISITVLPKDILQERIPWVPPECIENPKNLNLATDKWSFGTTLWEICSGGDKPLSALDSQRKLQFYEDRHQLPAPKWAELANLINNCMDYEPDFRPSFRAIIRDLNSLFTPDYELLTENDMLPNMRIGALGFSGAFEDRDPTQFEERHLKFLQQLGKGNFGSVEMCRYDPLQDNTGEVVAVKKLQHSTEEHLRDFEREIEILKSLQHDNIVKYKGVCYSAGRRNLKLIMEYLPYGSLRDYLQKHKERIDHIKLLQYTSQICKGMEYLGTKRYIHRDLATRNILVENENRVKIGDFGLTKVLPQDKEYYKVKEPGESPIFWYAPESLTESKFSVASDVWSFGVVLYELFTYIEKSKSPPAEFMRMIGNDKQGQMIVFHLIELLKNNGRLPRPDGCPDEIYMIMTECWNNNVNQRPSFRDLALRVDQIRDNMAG
Chain of LCK (P06239 whole entry, species assumed): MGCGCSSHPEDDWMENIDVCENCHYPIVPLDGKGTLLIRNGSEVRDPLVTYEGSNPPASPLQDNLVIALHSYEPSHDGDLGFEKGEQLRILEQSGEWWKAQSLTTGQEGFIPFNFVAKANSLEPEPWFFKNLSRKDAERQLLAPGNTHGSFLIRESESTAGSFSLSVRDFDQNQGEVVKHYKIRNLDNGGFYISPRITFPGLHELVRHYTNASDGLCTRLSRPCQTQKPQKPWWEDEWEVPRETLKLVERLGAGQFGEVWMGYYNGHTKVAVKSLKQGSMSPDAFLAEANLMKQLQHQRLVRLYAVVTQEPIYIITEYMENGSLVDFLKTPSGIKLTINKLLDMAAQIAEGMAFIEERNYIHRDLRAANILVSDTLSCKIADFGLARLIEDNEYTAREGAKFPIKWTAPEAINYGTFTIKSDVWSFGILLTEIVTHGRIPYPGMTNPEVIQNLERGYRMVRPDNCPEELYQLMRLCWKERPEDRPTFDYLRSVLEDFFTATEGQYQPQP
Chain of HER2 (P04626 23-1255, species assumed): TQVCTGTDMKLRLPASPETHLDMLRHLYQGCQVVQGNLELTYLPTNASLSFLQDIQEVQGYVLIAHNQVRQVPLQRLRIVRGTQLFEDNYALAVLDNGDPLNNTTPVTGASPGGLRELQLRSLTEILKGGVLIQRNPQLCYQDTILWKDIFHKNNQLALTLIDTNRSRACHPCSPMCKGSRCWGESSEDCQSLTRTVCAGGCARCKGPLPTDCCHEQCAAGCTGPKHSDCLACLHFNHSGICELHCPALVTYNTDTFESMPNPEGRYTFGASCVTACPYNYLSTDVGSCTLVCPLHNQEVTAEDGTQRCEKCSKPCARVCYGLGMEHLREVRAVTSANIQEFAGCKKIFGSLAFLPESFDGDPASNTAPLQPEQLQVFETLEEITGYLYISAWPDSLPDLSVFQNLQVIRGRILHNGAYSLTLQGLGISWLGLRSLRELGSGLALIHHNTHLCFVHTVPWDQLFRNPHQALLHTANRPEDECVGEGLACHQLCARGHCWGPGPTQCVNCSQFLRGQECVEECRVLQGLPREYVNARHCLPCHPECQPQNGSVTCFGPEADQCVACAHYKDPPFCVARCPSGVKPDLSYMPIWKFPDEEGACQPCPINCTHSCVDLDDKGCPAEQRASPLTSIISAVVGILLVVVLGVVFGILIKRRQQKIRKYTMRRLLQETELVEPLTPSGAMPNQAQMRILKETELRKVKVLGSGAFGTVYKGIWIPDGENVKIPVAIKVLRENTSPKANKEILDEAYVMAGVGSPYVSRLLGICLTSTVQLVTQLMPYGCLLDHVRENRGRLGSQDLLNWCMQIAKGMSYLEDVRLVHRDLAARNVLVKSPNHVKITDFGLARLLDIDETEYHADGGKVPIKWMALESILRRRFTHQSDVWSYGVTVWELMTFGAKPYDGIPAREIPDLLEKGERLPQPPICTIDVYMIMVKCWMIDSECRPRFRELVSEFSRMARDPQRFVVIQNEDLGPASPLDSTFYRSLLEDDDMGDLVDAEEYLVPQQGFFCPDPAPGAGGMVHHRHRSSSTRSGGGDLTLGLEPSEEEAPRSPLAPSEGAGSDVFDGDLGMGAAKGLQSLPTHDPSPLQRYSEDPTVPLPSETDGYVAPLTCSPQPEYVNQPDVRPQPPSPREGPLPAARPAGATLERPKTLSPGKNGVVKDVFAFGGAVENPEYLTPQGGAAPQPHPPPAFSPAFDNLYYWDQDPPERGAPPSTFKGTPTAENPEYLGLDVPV
Chain of KDR (P35968 20-1356, species assumed): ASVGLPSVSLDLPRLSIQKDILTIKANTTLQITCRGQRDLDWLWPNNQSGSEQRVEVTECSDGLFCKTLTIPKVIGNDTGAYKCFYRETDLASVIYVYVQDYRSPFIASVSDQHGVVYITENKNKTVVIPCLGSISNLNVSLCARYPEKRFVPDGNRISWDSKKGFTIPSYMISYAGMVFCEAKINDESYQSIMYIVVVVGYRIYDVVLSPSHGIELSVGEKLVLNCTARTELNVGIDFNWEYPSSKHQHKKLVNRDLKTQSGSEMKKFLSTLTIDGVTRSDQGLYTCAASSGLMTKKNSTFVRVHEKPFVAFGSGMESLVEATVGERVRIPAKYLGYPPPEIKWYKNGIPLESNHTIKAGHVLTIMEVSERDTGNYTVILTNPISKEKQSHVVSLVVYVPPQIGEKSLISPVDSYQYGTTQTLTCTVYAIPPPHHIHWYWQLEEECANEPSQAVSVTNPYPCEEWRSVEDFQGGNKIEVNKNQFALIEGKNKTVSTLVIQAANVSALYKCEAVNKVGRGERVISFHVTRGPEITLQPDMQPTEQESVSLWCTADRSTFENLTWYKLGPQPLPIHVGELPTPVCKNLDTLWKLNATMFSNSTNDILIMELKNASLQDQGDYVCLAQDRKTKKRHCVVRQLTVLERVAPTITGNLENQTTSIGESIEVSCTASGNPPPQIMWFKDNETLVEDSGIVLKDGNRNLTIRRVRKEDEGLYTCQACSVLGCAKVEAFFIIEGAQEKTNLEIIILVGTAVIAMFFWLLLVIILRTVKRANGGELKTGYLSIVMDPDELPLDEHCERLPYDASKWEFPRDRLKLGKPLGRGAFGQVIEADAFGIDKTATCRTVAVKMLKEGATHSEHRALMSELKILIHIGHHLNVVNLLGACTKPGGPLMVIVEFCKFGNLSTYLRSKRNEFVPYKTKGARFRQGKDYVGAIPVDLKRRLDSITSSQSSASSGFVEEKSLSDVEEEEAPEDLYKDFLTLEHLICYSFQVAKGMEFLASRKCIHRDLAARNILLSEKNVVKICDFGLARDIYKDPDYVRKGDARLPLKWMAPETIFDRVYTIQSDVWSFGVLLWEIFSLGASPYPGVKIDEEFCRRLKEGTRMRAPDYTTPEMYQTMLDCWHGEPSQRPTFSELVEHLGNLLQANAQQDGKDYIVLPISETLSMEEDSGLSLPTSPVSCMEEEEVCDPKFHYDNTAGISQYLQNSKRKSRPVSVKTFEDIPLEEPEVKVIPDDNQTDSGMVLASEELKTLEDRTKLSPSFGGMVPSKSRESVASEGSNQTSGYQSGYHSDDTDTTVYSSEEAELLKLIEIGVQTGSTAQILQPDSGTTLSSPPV
Chain of FGFR-4 (P22455 22-802, species assumed): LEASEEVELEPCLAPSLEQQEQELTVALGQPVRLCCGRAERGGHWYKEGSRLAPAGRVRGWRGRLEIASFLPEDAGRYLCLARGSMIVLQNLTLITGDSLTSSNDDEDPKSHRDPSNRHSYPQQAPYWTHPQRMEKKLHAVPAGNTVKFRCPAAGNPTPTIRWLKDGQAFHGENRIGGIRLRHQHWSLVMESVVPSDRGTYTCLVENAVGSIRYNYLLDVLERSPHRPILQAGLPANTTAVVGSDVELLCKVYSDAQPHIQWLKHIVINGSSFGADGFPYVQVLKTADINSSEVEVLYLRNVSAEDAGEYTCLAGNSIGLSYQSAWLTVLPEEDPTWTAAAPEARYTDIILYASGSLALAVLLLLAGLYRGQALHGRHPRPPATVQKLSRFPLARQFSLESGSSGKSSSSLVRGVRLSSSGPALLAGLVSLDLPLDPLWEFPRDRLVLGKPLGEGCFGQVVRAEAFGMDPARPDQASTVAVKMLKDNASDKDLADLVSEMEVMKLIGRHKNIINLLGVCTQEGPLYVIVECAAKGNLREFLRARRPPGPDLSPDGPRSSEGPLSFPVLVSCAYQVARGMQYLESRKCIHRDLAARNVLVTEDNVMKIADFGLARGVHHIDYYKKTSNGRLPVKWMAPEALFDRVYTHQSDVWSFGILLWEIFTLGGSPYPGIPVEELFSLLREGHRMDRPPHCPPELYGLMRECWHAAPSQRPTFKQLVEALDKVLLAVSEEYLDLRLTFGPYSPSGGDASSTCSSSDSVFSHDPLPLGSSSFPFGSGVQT

## Nc1ncnc2c1c(-c1cc(OCC34CCC(CC3)O4)ccc1F)cn2[C@H]1C[C@@H](N2CC[S+]([O-])CC2)C1 (relative stereo) [Example 34, 5-[2-Fluoro-5-(7-oxa-bicyclo[2.2.1]hept-1-ylmethoxy)-phenyl]-7-[cis-3-(1-oxo-thiomorpholin-4-yl)-cyclobutyl]-7H-pyrrolo[2,3-d]pyrimidin-4-ylamine]
[1]
  IC50: > 10 µM
[2]
  IC50: > 10 µM
[3]
  IC50: > 10 µM
[4]
  IC50: > 10 µM
[5]
  IC50: > 10 µM
[6]
  IC50: > 10 µM
[7]
  IC50: > 10 µM
[8]
  IC50: > 10 µM
[9]
  IC50: > 10 µM
[10]
  IC50: > 10 µM
[11]
  IC50: > 10 µM
[12]
  IC50: > 10 µM
[13]
  IC50: > 10 µM
[14]
  IC50: > 10 µM
[15]
  IC50: > 10 µM
[16]
  IC50: > 10 µM
[17]
  IC50: > 10 µM
[18]
  IC50: > 10 µM
[19]
  IC50: > 10 µM
[20]
  IC50: 0.075 µM
[21]
  IC50: 0.0084 µM

## [2H]C1([2H])C([2H])([2H])C2(COc3ccc(F)c(-c4cn([C@H]5C[C@@H](N6CCN(C(C)=O)CC6)C5)c5ncnc(N)c45)c3)OC1([2H])C([2H])([2H])C2([2H])[2H] [Example 10, d9-1-[4-(cis-3-{4-Amino-5-[2-fluoro-5-(7-oxa-bicyclo[2.2.1]hept-1-ylmethoxy)-phenyl]-pyrrolo[2,3-d]pyrimidin-7-yl}-cyclobutyl)-piperazin-1-yl]-ethanone]
[22]
  IC50: 6.8 µM
[1]
  IC50: 6.4 µM
[2]
  IC50: 6.6 µM
[3]
  IC50: > 10 µM
[4]
  IC50: > 10 µM
[5]
  IC50: > 10 µM
[6]
  IC50: > 10 µM
[7]
  IC50: > 10 µM
[8]
  IC50: > 10 µM
[9]
  IC50: > 10 µM
[10]
  IC50: > 10 µM
[11]
  IC50: > 10 µM
[12]
  IC50: > 10 µM
[13]
  IC50: > 10 µM
[14]
  IC50: > 10 µM
[15]
  IC50: > 10 µM
[16]
  IC50: > 10 µM
[17]
  IC50: > 10 µM
[18]
  IC50: > 10 µM
[19]
  IC50: > 10 µM
[20]
  IC50: 0.081 µM
